Several values for one entry are separate records, joined by “and”; a condition that tells them apart may be missing. Equal values may be shown once.
How the values were obtained:
HeLa cells [1] = assay: Annexin V-FITC/PI double-staining apoptosis assay by flow cytometry; type: cell-based, human; conditions: 24 h, control 1.81%
Description: The ability of RuRe-1 and RuRe-2 to induce apoptosis in HeLa cells was further verified using Annexin V-FITC/PI (FITC: fluorescein isothiocyanate; PI: propidium iodide) double-staining. In the early stage of apoptosis, the surface of the cell membrane is […], at which point the phosphatidylserine on the surface of the apoptotic cell flips from the inner cell membrane to the outer cell membrane, where it can be labelled by Annexin V ([Jan and Chaudhry, 2019]). The membrane permeability of PI is poor and thus only necrotic cells can be labelled ([Zec et al., 2014]).
FIGURE 3 RuRe-1 and RuRe-2 induced HeLa cells apoptosis measured by flow cytometry with Annexin V/PI staining. The incubation time of the compounds was 24 h. […]

HeLa cells [2] = assay: Cell cycle analysis by flow cytometry with PI staining; type: cell-based, human; conditions: 24 h; for S cell cycle population: control 14.4 ± 0.9; for G2/M cell cycle population: control 21.4 ± 0.7; for G0/G1 cell cycle population: control 64.2 ± 1.3
Description: Cell cycle arrest studies provide a good understanding of cell apoptosis induced by metal drugs ([Sadoughi et al., 2021]). To further clarify the mechanism of apoptosis induced by RuRe-1 and RuRe-2, we analyzed the cell cycle of HeLa cells treated with RuRe-1 and RuRe-2 by flow cytometry with PI staining. […] A corresponding decrease in cell content in G1 and G2 phases was observed.
Cell cycle analysis. After HeLa cells were adhered to the 6-well plates, the medium was replaced with medium containing different concentrations of RuRe-1 and RuRe-2 for 24 h. Cells were collected and fixed for 24 h with pre-cooled 70% ethanol, then washed twice with PBS and finally stained with PI staining solution in a warm bath at 37 °C for 30 mins. The samples were detected by flow cytometry.

Row | SMILES | percentage of apoptotic cells (early apoptotic + late apoptotic) (HeLa cells [1]; 12.4 μM) [%] | S cell cycle population (HeLa cells [2]; 6.2 μM) [%] | G2/M cell cycle population (HeLa cells [2]; 6.2 μM) [%] | G0/G1 cell cycle population (HeLa cells [2]; 6.2 μM) [%] | S cell cycle population (HeLa cells [2]; 9.3 μM) [%] | G2/M cell cycle population (HeLa cells [2]; 9.3 μM) [%] | G0/G1 cell cycle population (HeLa cells [2]; 9.3 μM) [%] | S cell cycle population (HeLa cells [2]; 12.4 μM) | G2/M cell cycle population (HeLa cells [2]; 12.4 μM) [%] | G0/G1 cell cycle population (HeLa cells [2]; 12.4 μM) [%] | percentage of apoptotic cells (early apoptotic + late apoptotic) (HeLa cells [1]; 10.0 μM) [%] | S cell cycle population (HeLa cells [2]; 5.0 μM) [%] | G2/M cell cycle population (HeLa cells [2]; 5.0 μM) [%] | G0/G1 cell cycle population (HeLa cells [2]; 5.0 μM) [%] | S cell cycle population (HeLa cells [2]; 7.5 μM) [%] | G2/M cell cycle population (HeLa cells [2]; 7.5 μM) [%] | G0/G1 cell cycle population (HeLa cells [2]; 7.5 μM) [%] | S cell cycle population (HeLa cells [2]; 10.0 μM) | G2/M cell cycle population (HeLa cells [2]; 10.0 μM) [%] | G0/G1 cell cycle population (HeLa cells [2]; 10.0 μM) [%]
1 | F[P-](F)(F)(F)(F)F.F[P-](F)(F)(F)(F)F.F[P-](F)(F)(F)(F)F.[C-]#[O+].[C-]#[O+].[C-]#[O+].[Re+].[Ru+2].c1ccc(-c2ccccn2)nc1.c1ccc(-c2ccccn2)nc1.c1ccc(-c2ccnc3c2ccc2c(-c4ccccc4)ccnc23)cc1.c1cnc2c(c1)c1nc(-c3ccncc3)[nH]c1c1cccnc12 [RuRe-1, [Ru(bpy)2LRe(CO)3(DIP)](PF6)3] | 22.38 | 12.5 ± 0.2 | 18.7 ± 1.3 | 68.8 ± 0.5 | 27.4 ± 0.9 | 16.1 ± 1.1 | 56.5 ± 1.1 | 33.8% and 33.8 ± 1.2% | 14.5 ± 1.1 | 51.7 ± 0.9 |  |  |  |  |  |  |  |  |  | 
2 | F[P-](F)(F)(F)(F)F.F[P-](F)(F)(F)(F)F.F[P-](F)(F)(F)(F)F.[C-]#[O+].[C-]#[O+].[C-]#[O+].[Re+].[Ru+2].c1ccc(-c2ccnc3c2ccc2c(-c4ccccc4)ccnc23)cc1.c1cnc2c(c1)c1nc(-c3ccncc3)[nH]c1c1cccnc12.c1cnc2c(c1)ccc1cccnc12.c1cnc2c(c1)ccc1cccnc12 [RuRe-2, [Ru(phen)2LRe(CO)3(DIP)](PF6)3] |  |  |  |  |  |  |  |  |  |  | 22.26 | 16.8 ± 1.6 | 17.9 ± 1.4 | 65.3 ± 0.9 | 39.9 ± 1.5 | 7.4 ± 0.5 | 52.7 ± 1.3 | 40.0% and 40.0 ± 0.6% | 7.6 ± 0.2 | 52.4 ± 1.0

Source: PMC9196629, “Synthesis, Characterization and Antitumor Mechanism Investigation of Heterometallic Ru(Ⅱ)-Re(Ⅰ) Complexes” (Frontiers in Chemistry, 2022)
